These results are taken from patent US6593333B1, “Substituted anilino-quinazoline (or quinoline) compounds and use thereof” (Astrazeneca AB, priority 1998, dated 2003).

The target of one experiment is T1, p38α (Homo sapiens, UniProt Q16539).
T1 construct: c-myc (N); 6His (N); made in house; host or cells: E. coli (PET vectors)
The experiment can be described thus: In vitro enzyme assay, p38α kinase. Type of experiment: biochemical. The method, then: The ability of compounds of the invention to inhibit the enzyme p38 kinase was assessed. Activity of particular test compounds against each of the p38α and p38β isoforms of the enzyme was determined.
Human recombinant MKK6 (GenBank Accesion Number G1209672) was isolated from Image clone 45578 (Genomics, 1996, 33, 151) and utilised to produce protein in the form of a GST fusion protein in a pGEX vector using analogous procedures to those disclosed by J. Han et al., Journal of Biological Chemistry, 1996, 271, 2886-2891. p38α (GenBank Accession Number G529039) and p38β (GenBank Accession Number G1469305) were isolated by PCR amplification of human lymphoblastoid cDNA (GenBank Accession Number GM1416) and human foetal brain cDNA [synthesised from mRNA (Clontech, catalogue no. 6525-1) using a Gibco superscript cDNA synthesis kit] respectively using oligonucleotides designed for the 5′ and 3′ ends of the human p38α and p38β genes using analogous procedures to those described by J. Han et al., Biochimica et Biophysica Acta, 1995, 1265, 224-227 and Y. Jiang et al., Journal of Biological Chemistry, 1996, 271, 17920-17926.
Both p38 protein isoforms were expressed in e coli in PET vectors. Human recombinant p38α and p38β isoforms were produced as 5′ c-myc, 6His tagged proteins. Both MKK6 and the p38 proteins were purified using standard protocols: the GST MKK6 was purified using a glutathione sepharose column and the p38 proteins were purified using nickel chelate columns.
The p38 enzymes were activated prior to use by incubation with MKK6 for 3 hours at 30° C. The unactivated coli-expressed MKK6 retained sufficient activity to fully activate both isoforms of p38. The activation incubate comprised p38α (10 μl of 10 mg/ml) or p38β (10 μl of 5 mg/ml) together with MKK6 (10 μl of 1 mg/ml), ‘Kinase buffer’ [100 μl; pH 7.4 buffer comprising Tris (50 mM), EGTA (0.1 mM), sodium orthovanadate (0.1 mM) and β-mercaptoethanol (0.1%)] and MgATP (30 μl of 50 mM Mg(OCOCH3)2 and 0.5 mM ATP). This produced enough activated p38 enzyme for 3 Microtiter plates.
Test compounds were solubilised in DMSO and 10 μl of a 1:10 diluted sample in ‘Kinase Buffer’ was added to a well in a Microtiter plate. […] The precipitated protein was phosphorylated by p38 kinase and test compounds were assessed for their ability to inhibit this phosphorylation. The plates were filtered using a Canberra Packard Unifilter and washed with 2% TCA, dried overnight and counted on a Top Count scintillation counter.
Test compounds were tested initially at a single dose and active compounds were retested to allow IC50 values to be determined.

The test system of experiment [1] is TNFα production, human peripheral blood mononuclear cells. The experiment can be described thus: PBMC test: inhibition of LPS-stimulated TNFα production. Type of experiment: cell-based. The method, then: The ability of compounds of this invention to inhibit TNFα production was assessed by using human peripheral blood mononuclear cells which synthesise and secrete TNFα when stimulated with lipopolysaccharide.
Peripheral blood mononuclear cells (PBMC) were isolated from heparinised (10 units/ml heparin) human blood by density centrifugation (Lymphoprep™; Nycomed). Mononuclear cells were resuspended in culture medium [RPMI 1640 medium (Gibco) supplemented with 50 units/ml penicillin, 50 μg/ml streptomycin, 2 mM glutamine and 1% heat-inactivated human AB serum (Sigma H-1513)]. Compounds were solubilised in DMSO at a concentration of 50 mM, diluted 1:100 in culture medium and subsequently serial dilutions were made in culture medium containing 1% DMSO. PBMCs (2.4×10^5 cells in 160 μl culture medium) were incubated with 20 μl of varying concentrations of test compound (triplicate cultures) or 20 μl culture medium containing 1% DMSO (control wells) for 30 minutes at 37° C. in a humidified (5%CO2/95% air) incubator (Falcon 3072; 96 well flat-bottom tissue culture plates). 20 μl lipopolysaccharide [LPS E.Coli 0111:B4 (Sigma L-4130), final concentration 10 μg/ml] solubilised in culture medium was added to appropriate wells. 20 μl culture medium was added to “medium alone” control wells. Six “LPS alone” and four “medium alone” controls were included on each 96 well plate. Varying concentrations of a known TNFα inhibitor were included in each test, i.e. an inhibitor of the PDE Type IV enzyme (for example see Semmler, J. Wachtel. H and Endres, S., Int. J. Immunopharmac. (1993), 15(3), 409-413) or an inhibitor of pro TNFα convertase (for example, see McGeehan, G. M. et al. Nature (1994) 370, 558-561). Plates were incubated for 7 hours at 37° C. (humidified incubator) after which 100 μl of the supernatant was removed from each well and stored at −70° C. (96 well round-bottom plates; Corning 25850). TNFα levels were determined in each sample using a human TNFα ELISA (see WO92/10190 and Current Protocols in Molecular Biology, vol 2 by Frederick M. Ausbel et al., John Wiley and Sons Inc.).
% inhibition=(LPS alone−medium alone)−(test concentration−medium alone)/(LPS alone−medium alone)×100

Molecules are shown by their SMILES. pIC50: −log10 of the molar value.

T1 sequence (Q16539 whole entry): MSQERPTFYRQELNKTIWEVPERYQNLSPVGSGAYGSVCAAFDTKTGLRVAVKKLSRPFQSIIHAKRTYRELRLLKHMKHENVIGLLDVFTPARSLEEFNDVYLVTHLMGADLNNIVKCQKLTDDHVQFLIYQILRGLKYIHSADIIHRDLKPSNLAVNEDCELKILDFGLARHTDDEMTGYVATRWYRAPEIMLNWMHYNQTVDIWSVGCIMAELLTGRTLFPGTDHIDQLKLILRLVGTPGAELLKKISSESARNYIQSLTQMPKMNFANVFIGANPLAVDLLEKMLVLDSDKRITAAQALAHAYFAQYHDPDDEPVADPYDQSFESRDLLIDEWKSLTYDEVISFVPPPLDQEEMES

What is called pIC50 is −log10 of the IC50, conventionally taken in molar units. With `COc1cc2c(Nc3cc(NC(=O)c4cccc(N(C)C)c4)ccc3C)ncnc2cc1OCCCN1CCOCC1` [Example 38], the pIC50 is 7.00 at p38α and 5.70 in experiment [1].
For `COc1cc2c(Nc3cc(NC(=O)c4cccc(N(C)C)c4)ccc3C)ncnc2c(OC)c1OC` [Example 24, 4-[2-Methyl-5-(3-dimethylaminobenzamido)anilino]-6,7,8-trimethoxyquinazoline], the pIC50 on p38α was 6.70; in experiment [1], 5.28.
As to `COc1cc2ncnc(Nc3ccc(C)c(NC(=O)c4ccccc4)c3)c2cc1OC` [Example 11], the pIC50 on p38α was 5.89; in experiment [1] it was 5.44.
Consider `CCC(=O)Nc1cc(Nc2ncnc3cc(OC)c(OC)cc23)ccc1F` [Example 14], for which the pIC50 against p38α was 5.47; in experiment [1], 5.49.
